# The source made the active and inactive calls. No cut-off for these calls is given here.
# Species: Homo sapiens
# Experiment: Inhibitory activity against human DNA polymerase gamma
# Conditions: not given
row,Activity,SMILES
1,inactive,O=C(NCc1ccc(F)cc1)c1nc(-c2cccs2)nc(O)c1O

# System: Human immunodeficiency virus
# Experiment: Inhibition of HIV reverse transcriptase
# Conditions: not given
row,Activity,SMILES
1,inactive,O=C(NCc1ccc(F)cc1)c1nc(-c2cccs2)nc(O)c1O

# System: Hepacivirus hominis
# Experiment: Inhibition of HCV NS5b polymerase
# Conditions: not given
row,Activity,SMILES
1,inactive,O=C(O)c1nc(-c2cccs2)nc(O)c1O

# Molecular target: Human immunodeficiency virus type 1 integrase (Human immunodeficiency virus 1, UniProt Q7ZJM1)
# Sequence (Q7ZJM1 whole entry): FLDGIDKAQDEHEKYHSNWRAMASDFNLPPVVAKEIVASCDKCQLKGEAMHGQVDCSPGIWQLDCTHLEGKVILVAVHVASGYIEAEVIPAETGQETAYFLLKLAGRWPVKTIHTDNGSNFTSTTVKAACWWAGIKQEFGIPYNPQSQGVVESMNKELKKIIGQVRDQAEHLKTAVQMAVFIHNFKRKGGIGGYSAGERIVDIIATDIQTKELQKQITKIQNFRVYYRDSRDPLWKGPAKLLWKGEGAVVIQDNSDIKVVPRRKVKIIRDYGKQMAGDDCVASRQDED
# Experiment: Inhibition of HIV1 integrase strand transfer activity
# Conditions: not given
row,SMILES,IC50 [nM]
1,Cc1cccc(CNC(=O)c2nc(-c3cccs3)nc(O)c2O)c1,40
2,Cc1ccc(CNC(=O)c2nc(-c3cccs3)nc(O)c2O)cc1,70
3,O=C(N[C@@H]1CCc2ccccc21)c1nc(-c2cccs2)nc(O)c1O,610
4,O=C(NCCc1ccccc1)c1nc(-c2cccs2)nc(O)c1O,20
5,O=C(Nc1cccs1)c1nc(-c2cccs2)nc(O)c1O,100
6,O=C(Nc1ccccc1)c1nc(-c2cccs2)nc(O)c1O,1000
7,O=C(Nc1cccc2ccccc12)c1nc(-c2cccs2)nc(O)c1O,30
8,O=C(Nc1nccs1)c1nc(-c2cccs2)nc(O)c1O,200
9,O=C(NCc1ccccc1-c1ccccc1)c1nc(-c2cccs2)nc(O)c1O,130
10,COc1ccccc1CNC(=O)c1nc(-c2cccs2)nc(O)c1O,90
11,COc1ccc(CNC(=O)c2nc(-c3cccs3)nc(O)c2O)cc1,550
12,O=C(NCc1cccc(-c2ccccc2)c1)c1nc(-c2cccs2)nc(O)c1O,50
13,O=C(NCc1ccccc1F)c1nc(-c2cccs2)nc(O)c1O,160
14,O=C(NCc1cccc(F)c1)c1nc(-c2cccs2)nc(O)c1O,70
15,O=C(NCc1ccc(Cl)cc1)c1nc(-c2cccs2)nc(O)c1O,20

# Next, values leading:
row,IC50 [nM],SMILES
1,50,COc1cccc(CNC(=O)c2nc(-c3cccs3)nc(O)c2O)c1
2,20,O=C(NCc1c[nH]c2ccccc12)c1nc(-c2cccs2)nc(O)c1O
3,210,CN(C(=O)c1nc(-c2cccs2)nc(O)c1O)c1cccc2ccccc12
4,10,O=C(Nc1cc2ccccc2s1)c1nc(-c2cccs2)nc(O)c1O
5,16600,O=C(NCc1ccncc1)c1nc(-c2cccs2)nc(O)c1O
6,40,C[C@H](NC(=O)c1nc(-c2cccs2)nc(O)c1O)c1ccc2ccccc2c1
7,10,O=C(NCc1ccc(Cl)c(Cl)c1)c1nc(-c2cccs2)nc(O)c1O
8,50000,O=C(NCC1CCCCC1)c1nc(-c2cccs2)nc(O)c1O
9,50000,O=C(NCc1ccc(-c2ccccc2)cc1)c1nc(-c2cccs2)nc(O)c1O
10,110,Cc1ccccc1CNC(=O)c1nc(-c2cccs2)nc(O)c1O
11,20,O=C(N[C@H]1CCc2ccccc21)c1nc(-c2cccs2)nc(O)c1O
12,2500,O=C(Nc1cncs1)c1nc(-c2cccs2)nc(O)c1O
13,610,C[C@@H](NC(=O)c1nc(-c2cccs2)nc(O)c1O)c1ccc2ccccc2c1
14,50,O=C(Nc1csc2ccccc12)c1nc(-c2cccs2)nc(O)c1O

# System: not listed separately
# Experiment: Oral bioavailability in rat
# Assay type: ADME, organism-based
# Conditions: in vivo
row,bioavailability [%],SMILES
1,39,O=C(NCc1ccc(F)cc1)c1nc(-c2cccs2)nc(O)c1O

# System: not listed separately
# Experiment: Plasma clearance in rat
# Assay type: ADME, organism-based
# Conditions: not given
row,clearance [mL/min/kg],SMILES
1,11,O=C(NCc1ccc(F)cc1)c1nc(-c2cccs2)nc(O)c1O

# Species: Homo sapiens
# Experiment: Inhibitory activity against human DNA polymerase alpha
# Conditions: not given
row,Activity,SMILES
1,inactive,O=C(NCc1ccc(F)cc1)c1nc(-c2cccs2)nc(O)c1O

# Species: Homo sapiens
# Experiment: Inhibitory activity against human DNA polymerase beta
# Conditions: not given
row,Activity,SMILES
1,inactive,O=C(NCc1ccc(F)cc1)c1nc(-c2cccs2)nc(O)c1O
